Results reported in patent publication US5336673A, “3-substituted cephem compounds” (priority 1990, dated 1994).
Values after ≈ are worked out from the molar mass of the structure shown. Like-named read-outs stand apart in the source and are kept apart here.

Key:
Escherichia coli TEM = assay: Antibacterial activity, MIC by Agar dilution method, standard test strain 10; type: cell-based
Protocol: (§1) The antibacterial activity was determined by an Agar dilution method as described below.
(§2) That is, the two-fold serial dilutions of the antibacterial compounds (1000 μg compound/ml) were prepared and dispersed in Muller Hinton Agar in a petri dish to a concentration of 100~0.002 μg/ml. The culture broths of standard test strains were inoculated on the medium to a concentration 10^7 CFU/ml, and incubated at 37° C. for 18 hours. The concentration of compounds(I) at which the strains were not grown was regarded as minimum inhibition concentration (MIC).
(§3) The results of antibacterial activity test of the representative examples of the compound (I) against 20 standard test strains shown in terms of MIC were indicated in Table 1.

Enterobacter cloacae P99 = assay: Antibacterial activity, MIC by Agar dilution method, standard test strain 19; type: cell-based; details: P99, 18 h
Protocol: as §1, §2, §3
19. Enterobacter cloacae P99

Escherichia coli DC 2 = assay: Antibacterial activity, MIC by Agar dilution method, standard test strain 9; type: cell-based; details: DC2; Escherichia coli DC 2; 10^7 CFU/ml, 37° C., 18 hours; read-out: MIC
Protocol: as §1, §2, §3

Acute toxcity test = details: in vivo, male ICR-mouse, after 1 week
Protocol: Further, in order to illustrate the usefulness of the compounds (I) as a drug, compounds of Examples 12, 18 and 36 were tested for acute toxcity by using 4 weeks-old male ICR-mouse as a test animal.
the compounds were dissolved in physiological saline and phosphate buffered solution (pH 7.0), or if they were […], suspended in carboxymethylcellulose or gum Arabic and then mixed with phosphate buffered solution.
The solution or mixture was administered to the tested animals intravenously or subcutaneously and, after 1 week, the number of surviving animals was calculated.

Klebsiella oxytoca 1082E = assay: Antibacterial activity, MIC by Agar dilution method, standard test strain 17; type: cell-based; details: 10^7 CFU/ml, 37° C., 18 hours
Protocol: as §1, §2, §3

[1] = test system: Staphylococcus aureus 503; assay: Antibacterial activity, MIC by Agar dilution method, standard test strain 6; type: cell-based; details: 10^7 CFU/ml, 37° C., 18 hours
Protocol: as §1, §2, §3
6. Staphylococcus aureus 503

[2] = test system: Pseudomonas aeruginosa 9027; assay: Antibacterial activity, MIC by Agar dilution method, standard test strain 12; type: cell-based; details: 10^7 CFU/ml, 37° C., 18 hours
Protocol: as §1, §2, §3
12. Pseudomonas aeruginosa 9027

[3] = test system: Pseudomonas aeruginosa 1771; assay: Antibacterial activity, MIC by Agar dilution method, standard test strain 14; type: cell-based; details: 10^7 CFU/ml, 37° C., 18 hours
Protocol: as §1, §2, §3
14. Pseudomonas aeruginosa 1771

[4] = test system: Pseudomonas aeruginosa 1771M; assay: Antibacterial activity, MIC by Agar dilution method, standard test strain 15; type: cell-based; details: 18 h
Protocol: as §1, §2, §3
15. Pseudomonas aeruginosa 1771M

Escherichia coli 1507E = assay: Antibacterial activity, MIC by Agar dilution method, standard test strain 11; type: cell-based
Protocol: as §1, §2, §3

Staphyloccus aureus 285 = assay: Antibacterial activity, MIC by Agar dilution method, standard test strain 5; type: cell-based; details: 10^7 CFU/ml, 37° C., 18 hours
Protocol: as §1, §2, §3
5. Staphyloccus aureus 285

[5] = test system: Streptococcus faecium MD 86; assay: Antibacterial activity, MIC by Agar dilution method, standard test strain 3; type: cell-based; details: Enterococcus faecium, MD86, 10^7 CFU/ml, 37° C., 18 hours
Protocol: as §1, §2, §3
3. Streptococcus faecium MD 86

[6] = test system: Staphylococcus aureus SG 511; assay: Antibacterial activity, MIC by Agar dilution method, standard test strain 4; type: cell-based; details: SG511, 10^7 CFU/ml, 37° C., 18 hours
Protocol: as §1, §2, §3
4. Staphylococcus aureus SG 511

[7] = test system: Gram-positive strains as well as Gram-negative strains including Pseudomonas; assay: Antibacterial activity (summary in words); type: cell-based; details: Gram-positive and Gram-negative strains
Protocol: as §1, §2

[8] = test system: Klebsiella aerogenes 1522E; assay: Antibacterial activity, MIC by Agar dilution method, standard test strain 18; type: cell-based; details: Klebsiella aerogenes 1522E; 10^7 CFU/ml, 37° C., 18 hours; read-out: MIC
Protocol: as §1, §2, §3
18. Klebsiella aerogenes 1522E

[9] = test system: Pseudomonas aeruginosa 1592E; assay: Antibacterial activity, MIC by Agar dilution method, standard test strain 13; type: cell-based; details: 10^7 CFU/ml, 37° C., 18 hours
Protocol: as §1, §2, §3
13. Pseudomonas aeruginosa 1592E

Escherichia coli DC O = assay: Antibacterial activity, MIC by Agar dilution method, standard test strain 8; type: cell-based; details: Escherichia coli DC O; 10^7 CFU/ml, 37° C., 18 hours; read-out: MIC
Protocol: as §1, §2, §3

Escherichia coli O 55 = assay: Antibacterial activity, MIC by Agar dilution method, standard test strain 7; type: cell-based
Protocol: as §1, §2, §3

[10] = test system: Enterobacter cloacae 1321E; assay: Antibacterial activity, MIC by Agar dilution method, standard test strain 20; type: cell-based
Protocol: as §1, §2, §3
20. Enterobacter cloacae 1321E

[11] = test system: Streptococcus pyogenes A 308; assay: Antibacterial activity, MIC by Agar dilution method, standard test strain 1; type: cell-based; details: A308, 10^7 CFU/ml, 37° C., 18 hours
Protocol: as §1, §2, §3
1. Streptococcus pyogenes A 308

[12] = test system: Streptococcus pyogenes A 77; assay: Antibacterial activity, MIC by Agar dilution method, standard test strain 2; type: cell-based; details: A77, 10^7 CFU/ml, 37° C., 18 hours
Protocol: as §1, §2, §3
2. Streptococcus pyogenes A 77

Salmonella typhimurium = assay: Antibacterial activity, MIC by Agar dilution method, standard test strain 16; type: cell-based; details: Salmonella enterica, 10^7 CFU/ml, 37° C., 18 hours
Protocol: as §1, §2, §3
16. Salmonella typhimurium

[13] = sc, Subcutaneous administration
[14] = Escherichia coli 1507E, 10^7 CFU/ml, 37° C., 18 hours, read-out: MIC
[15] = Escherichia coli TEM, 10^7 CFU/ml, 37° C., 18 hours, read-out: MIC
[16] = Enterobacter cloacae 1321E, 10^7 CFU/ml, 37° C., 18 hours, read-out: MIC

SMILES | MIC (Enterobacter cloacae P99) | MIC (Escherichia coli DC 2) | LD50 at 168 h (Acute toxcity test; [13]) | LD50 at 168 h (Acute toxcity test; Intravenous administration) | MIC (Klebsiella oxytoca 1082E) | MIC [1] | MIC [2] | MIC [3] | MIC [4] | MIC (Escherichia coli 1507E; [14]) | MIC (Staphyloccus aureus 285) | MIC [5] | MIC [6] | antibacterial activity (in words) [7] | MIC [8] | MIC [9] | MIC (Escherichia coli DC O) | MIC [11] | MIC [12] | MIC (Salmonella typhimurium) | further results
CO/N=C(\C(=O)N[C@@H]1C(=O)N2C(C(=O)[O-])=C(C[n+]3cn(N)cn3)CS[C@H]12)c1csc(N)n1 [Example 12, (6R,7R)-7-[(Z)-2-(2-aminothiazol-4-yl)-2-methoxyiminoacetamido]-3-[(4-amino-1,2,4-triazol-2-ium)methyl]-ceph-3-em-4-carboxylate] | 100 µg/mL (≈ 209 µM) | 0.097 µg/mL (≈ 0.202 µM) | > 6000 mg/kg | > 4000 mg/kg | 1.56 µg/mL (≈ 3.26 µM) | 0.781 µg/mL (≈ 1.63 µM) | 12.5 µg/mL (≈ 26.1 µM) | 6.25 µg/mL (≈ 13 µM) | 0.195 µg/mL (≈ 0.407 µM) | 0.098 µg/mL (≈ 0.204 µM) | 3.12 µg/mL (≈ 6.52 µM) | > 100 µg/mL | 1.56 µg/mL (≈ 3.26 µM) | excellent antibacterial activity | 0.049 µg/mL (≈ 0.102 µM) | 6.25 µg/mL (≈ 13 µM) | 0.098 µg/mL (≈ 0.204 µM) | 0.007 µg/mL (≈ 0.0146 µM) | 0.007 µg/mL (≈ 0.0146 µM) | 0.098 µg/mL (≈ 0.204 µM) | MIC (Escherichia coli TEM; Escherichia coli, 18 h): 0.049 µg/mL (≈ 0.102 µM); MIC (Escherichia coli O 55; Escherichia coli, O55, 18 h): 0.025 µg/mL (≈ 0.0521 µM); MIC ([10]; Enterobacter cloacae, 1321E, 18 h): 0.025 µg/mL (≈ 0.0521 µM)
CO/N=C(\C(=O)N[C@@H]1C(=O)N2C(C(=O)[O-])=C(C[n+]3cn(N)c4ccccc43)CS[C@H]12)c1csc(N)n1 [Example 19, (6R,7R)-7-[(Z)-2-(2-aminothiazol-4-yl)-2-methoxyiminoacetamido]-3-[(1-aminobenzimidazol-3-ium)methyl]-ceph-3-em-4-carboxylate] | > 100 µg/mL | 0.391 µg/mL (≈ 0.74 µM) | – | – | 3.12 µg/mL (≈ 5.91 µM) | 0.391 µg/mL (≈ 0.74 µM) | 50 µg/mL (≈ 94.6 µM) | 12.5 µg/mL (≈ 23.6 µM) | 0.781 µg/mL (≈ 1.48 µM) | 0.391 µg/mL (≈ 0.74 µM) | 0.781 µg/mL (≈ 1.48 µM) | > 100 µg/mL | 0.781 µg/mL (≈ 1.48 µM) | excellent antibacterial activity | 0.195 µg/mL (≈ 0.369 µM) | 25 µg/mL (≈ 47.3 µM) | 0.391 µg/mL (≈ 0.74 µM) | 0.013 µg/mL (≈ 0.0246 µM) | 0.007 µg/mL (≈ 0.0132 µM) | 0.195 µg/mL (≈ 0.369 µM) | MIC (Escherichia coli TEM; [15]): 0.391 µg/mL (≈ 0.74 µM); MIC (Escherichia coli O 55; Escherichia coli, O55, 18 h): 0.098 µg/mL (≈ 0.185 µM); MIC [10, 16]: 0.195 µg/mL (≈ 0.369 µM)
CC(C)(O/N=C(\C(=O)N[C@@H]1C(=O)N2C(C(=O)[O-])=C(C[n+]3cn(N)cn3)CS[C@H]12)c1csc(N)n1)C(=O)O [Example 36, (6R,7R)-7-[(Z)-2-(2-aminothiazol-4-yl)-2-(2-carboxyprop-2-oxyimino)acetamido]-3-[(4-amino-1,2,4-triazol-2-ium)methyl]-ceph-3-em-4-carboxylate] | 100 µg/mL (≈ 181 µM) | 0.195 µg/mL (≈ 0.354 µM) | > 6000 mg/kg | > 4000 mg/kg | 100 µg/mL (≈ 181 µM) | 1.56 µg/mL (≈ 2.83 µM) | 6.25 µg/mL (≈ 11.3 µM) | 1.56 µg/mL (≈ 2.83 µM) | 0.098 µg/mL (≈ 0.178 µM) | – | 3.12 µg/mL (≈ 5.67 µM) | 25 µg/mL (≈ 45.3 µM) | 1.56 µg/mL (≈ 2.83 µM) | excellent antibacterial activity | 0.781 µg/mL (≈ 1.42 µM) | 6.25 µg/mL (≈ 11.3 µM) | 0.781 µg/mL (≈ 1.42 µM) | 0.098 µg/mL (≈ 0.178 µM) | 0.049 µg/mL (≈ 0.0888 µM) | 6.25 µg/mL (≈ 11.3 µM) | MIC (Escherichia coli TEM; [15]): 3.12 µg/mL (≈ 5.67 µM); MIC (Escherichia coli 1507E; Escherichia coli, 1507E, 18 h): 1.56 µg/mL (≈ 2.83 µM); MIC (Escherichia coli O 55; O55, Escherichia coli O 55, 10^7 CFU/ml, 37° C., 18 hours, read-out: MIC): 0.195 µg/mL (≈ 0.354 µM); MIC [10, 16]: 0.391 µg/mL (≈ 0.709 µM)
